pIC50: −log10 of the molar value.
Experiments:
c-myc = assay: Inhibition of c-myc expression (mRNA, real-time PCR) in MV4-11 cells; type: cell-based; conditions: Human AML MV4-11 cells, 3 h, cMYC mRNA
Outline: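 MV4-11 cells treated 3 h at 37° C with increasing compound concentrations or 0.1% DMSO, in triplicate. cMYC mRNA quantified by one-step TaqMan real-time PCR, Ct normalized to internal control (Cyclophilin primers used), fold expression relative to control.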

hIL-6 mRNA = assay: Inhibition of hIL-6 mRNA transcription in LPS-stimulated U937 cells; type: cell-based; conditions: Homo sapiens, U-937; PMA-differentiated U937 cells, 1 h pretreatment, 1 ug/mL LPS stimulation, 3 h; read-out: IL-6 activity (Inhibition of hIL-6 mRNA Transcription)
Experimental: In this example, hIL-6 mRNA in tissue culture cells was quantitated to measure the transcriptional inhibition of hIL-6 when treated with a compound of the invention.
Human leukemic monocyte lymphoma U937 cells (CRL-1593.2) were plated at a density of 3.2×10^4 cells per well in a 96-well plate in 100 μL RPMI-1640 containing 10% FBS and penicillin/streptomycin, and differentiated into macrophages for 3 days in 60 ng/mL PMA ([…]) at 37° C. in 5% CO2 prior to the addition of compound. The cells were pretreated for 1 h with increasing concentrations of test compound in 0.1% DMSO prior to stimulation with 1 ug/mL lipopolysaccharide from Escherichia coli. Triplicate wells were used for each concentration. The cells were incubated at 37° C., 5% CO2 for 3 h before the cells were harvested. At time of harvest, media was removed and cells were rinsed in 200 μL PBS. Cells were harvested using the mRNA Catcher PLUS kit according to manufacturer's instructions. The eluted mRNA was then used in a one-step quantitative real-time PCR reaction using components of the RNA UltraSense™ One-Step Kit (Life Technologies) together with Applied Biosystems TaqMan® primer-probes for hIL-6 and Cyclophilin. Real-time PCR plates were run on a VIa™ 7 real time PCR machine (Applied Biosystems), data was analyzed, normalizing the Ct values for hIL-6 to an internal control, prior to determining the fold expression of each sample, relative to the control.

[1] = target: T1, Brd4 bromodomain 1 (BRD4(1)) (Homo sapiens, UniProt O60885); assay: Inhibition of tetra-acetylated histone H4 binding to Brd4 bromodomain 1 (TR-FRET); conditions: tetra-acetylated histone H4 peptide, first bromodomain of Brd4
T1 construct: made in house; host or cells: E. coli BL21(DE3)
Outline: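 His-tagged BRD4(1) from E. coli (200 nM) with biotinylated tetra-acetylated H4 peptide (25-50 nM), Eu-cryptate streptavidin and XL665 anti-His, in HEPES pH 7.4/phosphate/KF buffer, 0.2% DMSO. After 2 h at room temperature, TR-FRET 665/620 nm ratio read; IC50 from dose-response curves.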

human AML MV-4-11 cells = assay: Inhibition of cell proliferation in MV4-11 cells (CellTiter Aqueous One); type: cell-based; conditions: for pIC50: MV4-11, 72 h
Outline: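 Exponentially growing MV-4-11 cells (5×10^4/well) were treated immediately with two-fold dilutions of compound from 30 μM to 0.2 μM, in triplicate, for 72 h at 37° C, 5% CO2. Viability was measured by MTS absorbance at 490 nm after 3–4 h. Proliferation relative to DMSO after blank correction gave IC50.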

SMILES | pIC50 (c-myc) | pIC50 (hIL-6 mRNA) | pIC50 [1] | pIC50 (human AML MV-4-11 cells) | Cell Proliferation activity (human AML MV-4-11 cells; 72 h)
Cc1noc(C)c1-c1cnc2c(C=O)cn(Cc3ccccc3)c2c1 [Example Compound 35, 1-benzyl-6-(3,5-dimethylisoxazol-4-yl)-1H-pyrrolo[3,2-b]pyridine-3-carbaldehyde] | 5.52 to 6.52 | 5.52 to 6.52 | ≥ 6.52 | 5.52 to 6.52 | –
Cc1noc(C)c1-c1cnc2ccn(Cc3ccccc3)c2c1 [compound 71, 4-(1-benzyl-1H-pyrrolo[3,2-b]pyridin-6-yl)-3,5-dimethylisoxazole] | 5.52 to 6.52 | 5.52 to 6.52 | ≥ 6.52 | 5.52 to 6.52 | –
Cc1cnn(C)c1-c1cc(N)c2nc(C)n(Cc3ccccc3)c2c1 [compound 82, 1-benzyl-6-(1,4-dimethyl-1H-pyrazol-5-yl)-2-methyl-1H-benzo[d]imidazol-4-amine] | 5.52 to 6.52 | 5.52 to 6.52 | 5.52 to 6.52 | 4.52 to 5.52 | –
Cc1noc(C)c1-c1ccc2c(c1)N(Cc1ccccc1)C(=O)NC2 [Example Compound 12, 1-Benzyl-7-(3,5-dimethylisoxazol-4-yl)-3,4-dihydroquinazolin-2(1H)-one] | 5.52 to 6.52 | 5.52 to 6.52 | ≥ 6.52 | 5.52 to 6.52 | –
COc1cc(-c2c(C)noc2C)cc2c1nc(C)n2Cc1ccccc1 [Example Compound 66, 4-(1-benzyl-4-methoxy-2-methyl-1H-benzo[d]imidazol-6-yl)-3,5-dimethylisoxazole] | 5.52 to 6.52 | 5.52 to 6.52 | ≥ 6.52 | 5.52 to 6.52 | –
Cc1noc(C)c1-c1cnc2cnn(Cc3ccccc3)c2c1 [compound 92, 4-(1-benzyl-1H-pyrazolo[4,3-b]pyridin-6-yl)-3,5-dimethylisoxazole] | 5.52 to 6.52 | 5.52 to 6.52 | ≥ 6.52 | 5.52 to 6.52 | –
Cc1noc(C)c1-c1cnc2ccn(Cc3ccc(F)cc3)c2c1 [Example Compound 48, 4-(1-(4-fluorobenzyl)-1H-pyrrolo[3,2-b]pyridin-6-yl)-3,5-dimethylisoxazole] | 5.52 to 6.52 | 5.52 to 6.52 | ≥ 6.52 | 4.52 to 5.52 | –
Cc1noc(C)c1-c1cnc2c(c1)ncn2Cc1ccc(Cl)cc1 [Example Compound 42, 4-(3-(4-chlorobenzyl)-3H-imidazo[4,5-b]pyridin-6-yl)-3,5-dimethylisoxazole] | 4.52 to 5.52 | 4.52 to 5.52 | 5.52 to 6.52 | 4.52 to 5.52 | –
Cc1noc(C)c1-c1cnc2cnn(Cc3ccsc3)c2c1 [compound 98, 3,5-dimethyl-4-(1-(thiophen-3-ylmethyl)-1H-pyrazolo[4,3-b]pyridin-6-yl)isoxazole] | 5.52 to 6.52 | 5.52 to 6.52 | 5.52 to 6.52 | 5.52 to 6.52 | –
Cc1noc(C)c1-c1ccc2c(n1)[nH]c(=O)n2Cc1ccccc1 [Example Compound 3, 1-Benzyl-5-(3,5-dimethylisoxazol-4-yl)-1H-imidazo[4,5-b]pyridin-2(3H)-one] | 4.52 to 5.52 | 4.52 to 5.52 | 5.52 to 6.52 | 4.52 to 5.52 | –
Cc1noc(C)c1Cn1c(C)nc2ncc(-c3c(C)noc3C)cc21 [Example Compound 60, 4-((6-(3,5-dimethylisoxazol-4-yl)-2-methyl-1H-imidazo[4,5-b]pyridin-1-yl)methyl)-3,5-dimethylisoxazole] | 4.52 to 5.52 | 5.52 to 6.52 | 5.52 to 6.52 | – | Not active
Cc1noc(C)c1-c1cnc2nc(C)n(Cc3ccc(F)cc3)c2c1 [Example Compound 58, 4-(1-(4-fluorobenzyl)-2-methyl-1H-imidazo[4,5-b]pyridin-6-yl)-3,5-dimethylisoxazole] | 5.52 to 6.52 | 5.52 to 6.52 | ≥ 6.52 | 5.52 to 6.52 | –
Cc1noc(C)c1-c1cc(N)c2cnn(Cc3ccccc3)c2c1 [Example Compound 54, 1-benzyl-6-(3,5-dimethylisoxazol-4-yl)-1H-indazol-4-amine] | 5.52 to 6.52 | 5.52 to 6.52 | ≥ 6.52 | 5.52 to 6.52 | –

Continued, in another order:

pIC50 (c-myc) | pIC50 (hIL-6 mRNA) | pIC50 [1] | pIC50 (human AML MV-4-11 cells) | SMILES | Cell Proliferation activity (human AML MV-4-11 cells; 72 h)
≥ 6.52 | ≥ 6.52 | ≥ 6.52 | 5.52 to 6.52 | Cc1noc(C)c1-c1cnc2nc(N3CCC3)n(Cc3ccccc3)c2c1 [compound 123, 4-(2-(azetidin-1-yl)-1-benzyl-1H-imidazo[4,5-b]pyridin-6-yl)-3,5-dimethylisoxazole] | –
5.52 to 6.52 | ≥ 6.52 | ≥ 6.52 | 5.52 to 6.52 | Cc1noc(C)c1-c1cnc2c(C#N)cn(Cc3ccccc3)c2c1 [compound 88, 1-benzyl-6-(3,5-dimethylisoxazol-4-yl)-1H-pyrrolo[3,2-b]pyridine-3-carbonitrile] | –
5.52 to 6.52 | 5.52 to 6.52 | 5.52 to 6.52 | 5.52 to 6.52 | Cc1noc(C)c1-c1ccc2oc(=O)n(Cc3ccccc3)c2c1 [Example Compound 6, 3-Benzyl-5-(3,5-dimethylisoxazol-4-yl)benzo[d]oxazol-2(3H)-one] | –
5.52 to 6.52 | 5.52 to 6.52 | ≥ 6.52 | 5.52 to 6.52 | Cc1noc(C)c1-c1cnc2nc(C)n(Cc3cccs3)c2c1 [compound 69, 3,5-dimethyl-4-(2-methyl-1-(thiophen-2-ylmethyl)-1H-imidazo[4,5-b]pyridin-6-yl)isoxazole] | –
5.52 to 6.52 | 5.52 to 6.52 | ≥ 6.52 | 4.52 to 5.52 | Cc1noc(C)c1-c1cnc2nc(C)n(Cc3cccnc3)c2c1 [compound 68, 3,5-dimethyl-4-(2-methyl-1-(pyridin-3-ylmethyl)-1H-imidazo[4,5-b]pyridin-6-yl)isoxazole] | –
≥ 6.52 | ≥ 6.52 | ≥ 6.52 | ≥ 6.52 | Cc1noc(C)c1-c1cc(N)c2nc(C)n(C(C)c3ccccc3)c2c1 (centres unmarked) [compound 96, 6-(3,5-dimethylisoxazol-4-yl)-2-methyl-1-(1-phenylethyl)-1H-benzo[d]imidazol-4-amine] | –
≥ 6.52 | ≥ 6.52 | ≥ 6.52 | ≥ 6.52 | Cc1noc(C)c1-c1cc([N+](=O)[O-])c2nc(C)n(CC3CCCC3)c2c1 [compound 117, 4-(1-(cyclopentylmethyl)-2-methyl-4-nitro-1H-benzo[d]imidazol-6-yl)-3,5-dimethylisoxazole] | –
≥ 6.52 | 5.52 to 6.52 | ≥ 6.52 | 5.52 to 6.52 | CCOc1nc2c(N)cc(-c3c(C)noc3C)cc2n1Cc1ccccc1 [Example Compound 17, 1-benzyl-6-(3,5-dimethylisoxazol-4-yl)-2-ethoxy-1H-benzo[d]imidazol-4-amine] | –
≥ 6.52 | 5.52 to 6.52 | ≥ 6.52 | 5.52 to 6.52 | Cc1noc(C)c1-c1cnc2nc(NC3CCOCC3)n(CC3CCC3)c2c1 [compound 223, 1-(cyclobutylmethyl)-6-(3,5-dimethylisoxazol-4-yl)-N-(tetrahydro-2H-pyran-4-yl)-1H-imidazo[4,5-b]pyridin-2-amine] | –
≥ 6.52 | ≥ 6.52 | ≥ 6.52 | ≥ 6.52 | Cc1noc(C)c1-c1cc(N)c2nc(C)n([C@H](C)c3ccccc3)c2c1 [compound 144, (R)-6-(3,5-dimethylisoxazol-4-yl)-2-methyl-1-(1-phenylethyl)-1H-benzo[d]imidazol-4-amine] | –

Source: patent publication US10363257B2 (ZENITH EPIGENETICS LTD., priority 2013, dated 2019)
